B1: Pdx: putidaredoxin, a 2Fe-2S protein, redox carrier of the CYP101 system (protein, UniProt P00259 2-107, looked up)
Putidaredoxin: SKVVYVSHDGTRRELDVADGVSLMQAAVSNGIYDIVGDCGGSASCATCHVYVNEAFTDKVPAANEREIGMLECVTAELKPNSRLCCQIIMTPELDGIVVDVPDRQW

Experiments:
[1] = target: CYP101 (Pseudomonas putida, UniProt P00183); test: Electrode-driven camphor hydroxylation by CYP101/Pdx in electroenzymatic reactor; format: biochemical
From the text: The proteins were then purified using ion-exchange chromatography and size exclusion chromatography. The final protein preparations were at least 95% pure. On the basis of absorbance ratios, the mole fraction purity ×100 of each subunit protein was greater than 90. In addition, several preparations of the proteins were examined by high-resolution two-dimensional gel electrophoresis and by imaging analysis, and the mole fraction purity ×100 was estimated to be greater than 97 for each protein.
The working electrodes used in the following examples were antimony-doped, tin-oxide coated (0.3 μm thickness) glass slides (4×2 cm, Delta Technologies, Stillwater, Min.), with donor concentration as determined from Mott-Schottky plots (Nd =5×10^20 cm^-3). Prior to the biocatalysis experiments, the electrodes were soaked and sonicated in 1 M NaOH for approximately two hours, then rinsed with distilled water. They were activated in 15% HCl solution using a potential sweep between -0.5 and 1.5 V at 10 mV/s, and stored in distilled water. Film electrode resistance, as measured by a four point probe (Cascade Mictrotech, Inc., Model C4A-44 Beaverton, Oreg.), was 40-50 .OMEGA./sq.
The reference electrode was a standard Ag/AgCl (3M KCl) reference micro-electrode (Abtech Inc. RE803). The counter electrode was made as a coil of 0.5 mm thick Pt wire.
The buffer media was prepared using 0.16 M aqueous KCl and 0.01 M aqueous MgCl2, adjusted to about pH 7.4 with Tris-HCl buffer.
The product, 5-exo-hydroxy-camphor, was identified by GC-MS (gas chromatography and mass spectrophotometry) and quantified by GC-FID (gas chromatography and flame ionization detection). GC injection samples of 1-2 μL were prepared from approximately equal volumes of reaction mixture and an extraction cocktail comprising 0.3 g methylene chloride and 0.02 g KCl with 300 μM n-decane as an internal standard. The GC was operated with a DB-5 column (J&W Scientific, Folsom, Calif.) (30 m) with temperature programing (2 minutes at 60° C., ramp at 10° C./min to 120° C., 2 min at 120° C., ramp up at 15° C./min 160° C.). Retention times (He carrier gas at 2.8 bar pressure) were: n-decane 4.7 minutes, camphor 7.0 minutes, 5-exo-hydroxy-camphor 10.9 minutes. […] Identification of 5-exo-hydroxy-camphor as the product was done by comparing the m/e (mass/charge ratio) pattern (VG analytical Mass Spectrometer, 70 eV electron impact energy) with published spectra; see White et al., Arch. Biochem. Biophys.228, 493-502, 1984, the disclosure of which is incorporated herein by reference.
The same cell as described in Example 1 was equipped with two antimony-doped, tin-oxide electrodes and one platinum wire counter electrode. […] Electrolysis was started by applying a potential equal to -0.7 V (vs Ag/AgCl) to the tin oxide electrodes. […] Therefore, the enzyme underwent about 20 turnovers during the four hour period.
The same cell as described in Example 1 was equipped with-one antimony-doped, tin-oxide electrode and a Pt wire counter electrode isolated by a glass frit. A Pt sheet (0.5×10×30 mm) was positioned close to the surface of the working electrode. […] Initial GC analysis indicated no trace of the product. A potential equal to -0.7 V (vs Ag/AgCl) was applied to the tin oxide electrode. The Pt sheet was left at open circuit potential. After 5 hours of electrolysis, during which the solution was stirred by a magnetic stirrer, 442 μM product (5-exo-hydroxy-camphor) was detected by GC analysis. This corresponds to 1922 turnovers of the enzyme at an average rate of 384 turnovers/hour.
An antimony-doped, tin-oxide working electrode was wrapped in a Pt grid, which was electrically isolated from the conductive side of the electrode. A Pt wire, isolated from the working electrode and Pt grid by a glass frit, was utilized as a counter electrode. […]

[2] = Pdx integrity/activity after electrolysis and redox behaviour on antimony-doped tin-oxide electrode; format: physicochemical
Method: In a 1 cm path-length spectrophotometer cell, with 30 μM Pdx in the above-specified buffer, a potential of -0.7 V (vs. Ag/AgCl) was applied using a potentiostat, and an absorption spectrum was recorded through the transparent SnO2 electrode and 1 cm of reactor solution. The electrode surface area to solution volume ratio was about 5/m. A characteristic absorption spectrum of the oxidized Pdx was recorded initially. After 30 minutes of electrolytic reduction at -0.7 V, a characteristic spectrum of reduced Pdx was recorded. After an additional 30 minutes of electrolysis, the potential was switched to 0 V and a characteristic spectrum of oxidized Pdx was obtained. After electrolysis was complete, 50% of the initial activity of Pdx was recovered, as determined by the method described in Phillips and Langdon, J. Biol. Chem., 237, 2652 (1962), the disclosure of which is incorporated herein by reference. […] The recorded current-potential dependencies were stable and reproducible throughout the 6 hour period. […] The method described in this Example can be used to determine whether the working electrode has redox activity toward the redox carrier.
An antimony-doped, tin-oxide working electrode was wrapped in a Pt grid, which was electrically isolated from the conductive side of the electrode. A Pt wire, isolated from the working electrode and Pt grid by a glass frit, was utilized as a counter electrode. […] After 15.5 hours or electrolysis at -0.65 V (vs Ag/AgCl) and room temperature with continuous stirring, the solution contained 222 μM of product (5-exo-hydroxy-camphor), which corresponds to 1127 turnovers of the enzyme.

Molecule | Product Turnover Rate ([1]; 12.8 μM CYP101 (no Pdx), Argon Purge, 800 μM camphor, -0.7 V, 21-22° C.) | Product Turnover Rate ([1]; 41 μM Pdx (no CYP101), Argon Purge, 800 μM camphor, -0.7 V, 21-22° C.) | Product Turnover Rate ([1]; 41 μM Pdx + 0.41 μM CYP101, Air Saturated, 800 μM camphor, -0.7 V, 21-22° C.) | Product Turnover Rate ([1]; 55 μM Pdx + 0.18 μM CYP101, Argon Purge, 800 μM camphor, -0.7 V, 21-22° C.) | Product Turnover Rate ([1]; 108 μM Pdx + 0.23 μM CYP101, Argon Purge, 800 μM camphor, -0.7 V, 21-22° C.) | Product Turnover Rate ([1]; 1030 μM Pdx + 0.13 μM CYP101, Argon Purge, initial camphor 2 mM, -0.7 V, 21-22° C.) | Product Turnover Rate ([1]; 1030 μM Pdx + 0.13 μM CYP101, Argon Purge, initial camphor concentration was mM, 37° C., -0.7 V) | turnovers of the enzyme ([1]; Example 2: 10 μM CYP101, 118 μM Pdx, 600 μM camphor, -0.7 V, 240 minutes, argon purge) | average rate of enzyme turnover ([1]; Example 3: 0.23 μM CYP101, 108 μM Pdx, 626 μM camphor, -0.7 V, 5 hours) | turnovers of the enzyme ([1]; Example 3: 0.23 μM CYP101, 108 μM Pdx, 626 μM camphor, -0.7 V, 5 hours, Pt sheet near working electrode) | turnovers of the enzyme ([1]; Example 4: 0.2 μM CYP101, 101 μM Pdx, 650 μM camphor, -0.65 V, 15.5 hours, room temperature, Pt grid) | formal potential [2] | initial activity of Pdx recovered after electrolysis ([2]; Example 1: 30 μM Pdx, electrolysis at -0.7 V then 0 V on SnO2 electrode) | Pdx remaining intact after electrolysis (% of the initial concentration) ([2]; Example 4: 101 μM initial Pdx, 15.5 hours at -0.65 V) | Pdx remaining intact after electrolysis (concentration) ([2]; Example 4: 101 μM initial Pdx, 15.5 hours at -0.65 V, spectrophotometric analysis)
CC12CCC(CC1=O)C2(C)C (stereo not drawn) [camphor] | 0 nmol 5exo-hydroxy-camphor/min/ | 0 nmol 5exo-hydroxy-camphor/min/ | 0.9 nmol 5exo-hydroxy-camphor/min/ | 4.2 nmol 5exo-hydroxy-camphor/min/ | 6.4 nmol 5exo-hydroxy-camphor/min/ | 34 nmol 5exo-hydroxy-camphor/min/ | 36 nmol 5exo-hydroxy-camphor/min/ | about 20 turnovers | 384 turnovers/hour | 1922 turnovers | 1127 turnovers |  |  |  | 
B1 |  |  |  |  |  |  |  |  |  |  |  | -0.42 V vs Ag/AgCl | 50% | about 85% | about 85 μM
